As usually defined, the inhibition is how much of the control response was suppressed.

The test system of assay [1] is aquaporin 3 (AQP3). The assay can be described thus: Expression level of skin moisturizing factor AQP3 in UVA-irradiated HaCaT cells (RT-PCR). Type of assay: cell-based, human. As for the experimental part: (§1) In order to investigate the expression levels of aquaporin 3 (AQP3) and hyaluronic acid synthase 2 (HAS2), which are moisturizing factors involved in the migration of cell moisture, the test was performed using the human skin keratinocytes HaCaT cells (Korean Cell Line Bank). The HaCaT cells were incubated in Dulbecco's modified Eagle's medium (DEME, Gibco 1210-0038) containing 10% FBS. Cell incubation was carried out using a 5% CO2 incubator at 37° C. After the cells were treated with Irilin B and ultraviolet light (aging treatment: UVA: 5 J/cm^2), the levels of AQP3 and HAS2 expressed in the cells were measured. The expression levels were measured by extracting RNA from the HaCaT cells and performing real-time polymerase change reaction (RT-PCR). The test substance Irilin B was treated after UVA irradiation. Irilin B was in advance prepared into a 10 mg/ml stock solution by addition of DMEM. Upon the test, the cells were treated with the stock solution diluted to 1/1,000 to 1/500. […]
(§2) The gene expression test (RNA extraction and real-time polymerase chain reaction (PCR)) was performed in the following order:
(§3) i) RNA was extracted using TRIzol Reagent (Gibco, USA).
(§4) ii) The cDNA synthesis from the extracted RNA was performed using the ReverTra Ace reverse transcriptase kit (Toyobo, USA). […]

The subject of assay [2] is Collagenase isolated from mouse pancreases. Briefly: Measurement of anti-collagenase activity. The assay is classed as biochemical. As for the experimental part:
Collagenase, used in the measurement of enzyme activity, was isolated from mouse pancreases. The synthetic peptide, N-(3-[2-Furyl]acryloyl)-Leu-Gly-Pro-Ala, was used as a substrate compound for an enzymatic reaction. A solution containing 50 mM Tricine, 10 mM CaCl2.H2O, and 400 mM NaCl (pH 7.5) dissolved therein was used as a buffer solution. The synthetic substrate was dissolved to a concentration of […] in the buffer solution, and then finally diluted to 75 μM. Collagenase was dissolved to a concentration of 1 unit/ml in tertiary distilled water at 4° C. Upon the test, the collagenase diluted to a final concentration of 0.05 unit/ml in the buffer solution was used. […] In addition, the concentration of retinol (Sigma Co.), which was a positive control known as an anti-collagenase substance, was 10 μg/ml or 20 μg/ml in the test. The reaction was carried out in 96-well UV plates (Corning Co.) at room temperature for 10 minutes. The absorbance was measured at 345 nm at intervals of 1 minute using a microplate spectrophotometer (Bio-Rad). The enzyme activity was determined by obtaining the maximal slope of absorbance over time. All enzymatic reactions were repeatedly carried out three times, and expressed as average values. The anti-collagenase activity was calculated as below:
Anti-collagenase activity (%)=[(absolute value of slope in control−absolute value of slope in test sample)/absolute value of slope in control]×100 [Calculation Formula]

Assay [3] has as its target T1, elastase isolated from human leukocytes (Homo sapiens, UniProt P08246).
T1 construct: The elastase isolated from human leukocytes were used; from tissue; host or cells: human leukocytes
T1 sequence (P08246 30-267): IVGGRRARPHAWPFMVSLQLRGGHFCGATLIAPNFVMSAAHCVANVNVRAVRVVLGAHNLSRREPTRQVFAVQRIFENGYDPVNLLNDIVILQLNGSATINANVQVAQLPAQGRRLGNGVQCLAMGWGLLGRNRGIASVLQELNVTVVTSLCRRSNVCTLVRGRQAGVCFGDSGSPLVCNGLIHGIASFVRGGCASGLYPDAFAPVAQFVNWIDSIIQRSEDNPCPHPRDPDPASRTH
Briefly: Measurement of anti-elastase activity. The assay is classed as biochemical. As to the method: The anti-elastase activity (elastase being an elastin degradation enzyme) was tested as below. The elastase isolated from human leukocytes were used. The synthetic oligopeptide, MeOSuc-Ala-Ala-Pro-Val-pNA, was used as a substrate of an enzyme reaction. A 100 mM Tris (pH 7.5) solution was used as a buffer solution. Elastase was finally used at 0.2 mU using the buffer solution. In addition, the synthetic substrate of elastase was made into a 100 mM solution using […], and then diluted to a final concentration of 0.5 mM in the buffer solution. […] The concentration of quercetin (Sigma Co.), which was a positive control known as an anti-elastase substance, was 10 μg/ml or 20 μg/ml in the test. The reaction was carried out in 96-well UV plates (Corning Co.) at room temperature for 20 minutes. The absorbance was measured at 405 nm at intervals of 1 minute using a microplate spectrophotometer (Bio-Rad). The enzyme activity was determined by obtaining the maximal slope of absorbance over time. All enzymatic reactions were repeatedly carried out three times, and expressed as average values. The […] was calculated as below:
Anti-elastase activity (%)=[(absolute value of slope in control−absolute value of slope in test sample)/absolute value of slope in control]×100 [Calculation Formula]

The test system of assay [4] is hyaluronic acid synthase 2 (HAS2). The assay can be described thus: Expression level of skin moisturizing factor HAS2 in UVA-irradiated HaCaT cells (RT-PCR). Type of assay: cell-based, human. Particulars: UVA 5 J/cm^2, 10, 20, 40 μg/ml, 24 hours. As for the experimental part:
as §1, §2, §3, §4

Assay [5] relates to Human skin keratinocytes. Briefly: Keratinocyte differentiation promoting effect. Type of assay: cell-based. Particulars: for Cell differentiation promoting effect (%): vs distilled water (0%). As for the experimental part:
Human skin keratinocytes (Korean Cell Line Bank) were seeded in the CO2 incubation flask in which DMEM containing 10% FBS was placed. After the cells were grown to a confluency of about 80%, Irilin B at different concentrations (5, 10, 20, 50, 100 μg/ml) were added to the cells, followed by incubation for 3 days. Thereafter, the cells were treated with a reduction modifier, such as sodium dodecyl sulfate (SDS) and β-mercaptoethanol, to remove proteins. After the treatment, the remaining keratinocyte layer was suspended in distilled water, and then the absorbance was measured at 310 nm to analyze the peptide concentration. The increase by each sample was compared on the basis of the negative control, distilled water (0%). In the positive control, the cells were treated with 10 nM TGF-β known as a cell differentiation factor. All the tests of keratinocyte differentiation promoting effect were repeatedly carried out three times. The absorbance at 310 nm is expressed as a mean and standard deviation, and the cell differentiation promoting effect is expressed, using the following calculation formula, as an average value (%), in Table 4.
Cell differentiation promoting effect (%)=(absorbance value at 310 nm in test sample−absorbance value at 310 nm in negative control)×100 [Calculation Formula]

Setting [6] is: both at 20 μg/ml, same conditions.

`COc1c(O)cc2occ(-c3ccccc3O)c(=O)c2c1O` [Irilin B, 5,7,2′-trihydroxy-6-methoxyisoflavone]: in assay [1] (UVA 5 J/cm^2, 40 μg/ml), the “expression level of AQP3 after UVA irradiation (FIG. 1)” value is reported as “again increased to a level in the control irradiated without UVA”. Besides, in assay [1] (UVA 5 J/cm^2, 10, 20, 40 μg/ml, 24 hours), the “expression of AQP3 after UVA irradiation (FIG. 1)” value is reported as “restored the UVA-reduced level of AQP3 in a dose dependent manner”. Also, the “Anti-collagenase activity (%)” value is on record as 33.33% in assay [2] (5 μg/ml), 49.38% in assay [2] (10 μg/ml) and 62.96% in assay [2] (20 μg/ml). The entries for the “Enzyme activity (Absolute value of maximal slope of absorbance over time at 345 nm)” value in assay [2] (5 μg/ml), in assay [2] (10 μg/ml) and in assay [2] (20 μg/ml) were 0.54, 0.41 and 0.30, respectively. Also, the “anti-collagenase activity compared with retinol” value in assay [2] (setting [6]) is “about 2.05 fold”. The “Enzyme activity (Absolute value of maximal slope of absorbance over time at 405 nm)” value in assay [3] (5 μg/ml) is listed as 0.85; in assay [3] (10 μg/ml) it was 0.72; in assay [3] (20 μg/ml), 0.54. Also, 5 µg/mL produced 32.5% inhibition in assay [3] (5 μg/ml). Further, at 10 µg/mL the inhibition in assay [3] (10 μg/ml) was 42.9%. For the same compound, in assay [3] (20 μg/ml), the inhibition at 20 µg/mL worked out at 57.1%. In addition, the “anti-elastase activity compared with quercetin” value in assay [3] (setting [6]) is “about 1.47 fold”. For the same compound, the “expression of HAS2 after UVA irradiation (FIG. 2)” value in assay [4] is given as “again restored to a level in the normal control”. In addition, the “Cell differentiation promoting effect (%)” value in assay [5] (10 μg/ml, 3 days) came to 28.2%; in assay [5] (20 μg/ml, 3 days), 46.7%; in assay [5] (50 μg/ml, 3 days) it was 95.3%; in assay [5] (100 μg/ml, 3 days), 142.4%. In assay [5] (100 μg/ml vs TGF-β 10 nM), the “cell differentiation promoting effect compared with positive control (in words)” value was “equivalent to the cell differentiation factor TGF-β (10 nM)”. In addition, in assay [5] (5, 10, 20, 50, and 100 μg/ml), the “differentiation of keratinocytes (in words)” value is on record as “promoted the differentiation of keratinocytes”.

Turning to `O=c1c(O)c(-c2ccc(O)c(O)c2)oc2cc(O)cc(O)c12` [Quercetin, quercetin, reference compound], in assay [3] (10 μg/ml), the “Enzyme activity (Absolute value of maximal slope of absorbance over time at 405 nm)” value is listed as 0.88 and 10 µg/mL produced 30.2 ± 3.14% inhibition. In assay [3] (20 μg/ml), the “Enzyme activity (Absolute value of maximal slope of absorbance over time at 405 nm)” value amounted to 0.77 and the inhibition at 20 µg/mL came out at 38.9%.

Regarding `CC1=C(/C=C/C(C)=C/C=C/C(C)=C/CO)C(C)(C)CCC1` [Retinol, reference compound], the “Anti-collagenase activity (%)” value in assay [2] (10 μg/ml) is listed as 17.28 ± 0.85%; in assay [2] (20 μg/ml), 30.86%. For the same compound, the “Enzyme activity (Absolute value of maximal slope of absorbance over time at 345 nm)” value worked out at 0.67 in assay [2] (10 μg/ml) and 0.56 in assay [2] (20 μg/ml).

transforming growth factor-β (TGF-β): the “Cell differentiation promoting effect (%)” value in assay [5] (10 nM) came out at 144.7%.

The record behind these values is patent publication US20210401708A1, “Skin Anti-Aging Composition Containing Irilin B” (PHYTO CORPORATION INC., priority 2018, published 2021).
